Each block holds one compound with its values, some of them ahead of it.
Key:
[1] = Hydrodynamic size and size distribution of nanoprodrugs by dynamic light scattering; type: physicochemical
Procedure: Briefly, 25 mg of the compounds were dissolved in acetone (5 ml) containing polysorbate 80 (0.1% w/v). […] Following 15 min of magnetic stirring, the acetone was removed under reduced pressure at room temperature.
The hydrodynamic size measurement and size distribution of the nanoprodrugs were performed by the dynamic light scattering (DLS) using a Coulter N4-Plus Submicron Particle Sizer (Coulter Corporation, Miami, Fla., USA). The nanoprodrugs were diluted in deionized water and the analysis was performed at a scattering angle of 90° and at a temperature of 25° C. Three separate preparations were analyzed for each nanoprodrug. For each preparation mean diameter and mean polydispersity index (P.I.) of three determinations were calculated. The mean diameter±standard deviation (S.D.) and P.I.±S.D. were calculated from the three mean diameters and mean P.I.'s of the three separate preparations.

Esterase (porcine liver) = experiment: Enzymatic destabilization / hydrolysis of nanoprodrugs by esterase; type: in vitro ADME; settings: esterase 5 U/ml; for Concentrations of the released drugs after 12 h incubation: compared with ALA-TEG-Npx and ALA-TEG-Ibu after 1 h; for Parent drugs hydrolyzed / released from the nanoprodrugs after 1 h incubation / Concentration of the released drugs / Drug release: nanoprodrug 500 μM; for Concentration of the released drugs / Drug release: 60 min, room temperature, PBS pH 7.4
Procedure: Esterase (porcine liver, Sigma, code E3019) was added to the final concentration of 5 U/ml. For the nanoprodrugs from the three bifunctional prodrugs, ALA-TEG-Ibu, ALA-TEG-Npx and ALA-TEG-Ind, the reduction in turbidity was monitored using ultraviolet/visible spectrometer (Bio-Rad SmartSpec™ 3000) for 60 min at room temperature with a wavelength λ=500 nm and 1 min acquisition interval. For the nanoprodrugs from the three dimeric prodrugs, Ibu2TEG, Npx2TEG and Ind2TEG, the samples were taken during the incubation for 12 h at room temperature with appropriate time interval and the reduction in turbidity was measured.
To determine the amount of enzymatically hydrolyzed NSAIDs, samples were centrifuged for 10 min at 20,000×g and the supernatants were analyzed by RP-HPLC using a C18 reversed phase column (Section 2.5).
The concentration of the NSAIDs was determined using calibration curves generated in the concentration range of 25-500 μM. Error bar represents±S.D. calculated from triplicate determinations. The stability of the nanoprodrugs under the experimental conditions in the absence of esterase was evaluated as follows. The purified nanoprodrugs were suspended in PBS (pH 7.4) and incubated for 12 h at room temperature. The amount of the intact prodrugs was determined using RP-HPLC as described above.

[2] = tested on: U87-MG human glioma cell line; settings: nanoprodrug 10 to 100 μM, 3 days
Procedure: The cells were grown and maintained in Minimum Essential Medium (MEM) (Invitrogen) containing antibiotics 100 U/mL penicillin (Invitrogen) and 100 μg/mL streptomycin (Invitrogen), and supplemented with 10% fetal bovine serum (FBS) (Invitrogen). Cells were kept at 37° C. in a humidified atmosphere including 5% CO2.
Nanoprodrugs were prepared from the monomeric derivative Ibu2TEG (25 mg) as described in Example 6 and dialyzed in phosphate buffered saline (PBS) over night. The human glioma cells (U87-MG) were seeded in a 25 cm^2 flask at 2.5×10^5 cells/5 mL and allowed to grow for 24 h. The medium was changed and the cells were treated with nanoprodrugs at final concentration ranging from 10 to 100 μM for the monomeric derivative Ibu2TEG. After a 3-day treatment, the medium was remove, cells were washed with PBS and 1 mL of 0.25% trypsin/EDTA (Gibco) was added to detach the cells. […] Control culture was treated with PBS.

[3] = Oxidative destabilization of nanoprodrugs (turbidity at 500 nm after HOCl); settings: nanoprodrug 250 μM, HOCl 25-1000 μM
Procedure: The nanoprodrugs were purified by centrifuging three times at 20,000×g for 10 min at 25° C. and resuspending each time in the same volume of deionized water. The purified nanoprodrugs were resuspended in phosphate buffered saline (PBS, pH 7.4) to give the final concentration of 250 μM NSAID derivatives. The concentration of HOCl in the diluted commercial sodium hypochlorite solution was determined spectrophotometrically (ε292=350 M^−1 cm^−1) (Morris, 1966). HOCl was added to the suspension of nanoprodrugs to give the final concentration of 25-1000 μM and the reduction in turbidity was measured immediately using ultraviolet/visible spectrometer (Bio-Rad SmartSpec™ 3000, Hercules, Calif., USA) at room temperature with a wavelength λ=500 nm.

esterase [4] = experiment: Recovery of NSAIDs from oxidized nanoprodrugs (esterase hydrolysis); type: in vitro ADME, porcine; settings: 250 μM, HOCl 500 μM 2 min, esterase 2 U/ml, overnight 37° C.
Procedure: The recovery yield of NSAIDs was determined for oxidized and non-oxidized nanoprodrugs. The nanoprodrugs prepared from ALA-TEG-Ibu, ALA-TEG-Npx and ALA-TEG-Ind (250 μM in PBS, pH 7.4) were incubated in the presence and absence of HOCl (500 μM) for 2 min. Esterase (2 U/ml) was added and mixed by pipetting up and down. In order to determine the total amount of available NSAIDs from the oxidized and non-oxidized nanoprodrugs, the hydrolysis was carried out overnight at 37° C. The reaction mixture was centrifuged for 10 min at 20,000×g and the hydrolyzed NSAIDs in the supernatant were quantified using RP-HPLC. Error bar represents±S.D. calculated from triplicate determinations.

esterase [5] = experiment: Effect of nanoprodrug oxidation on the rate of enzymatic hydrolysis; type: in vitro ADME, porcine; settings: determined immediately after addition of esterase 2 U/ml; HOCl 500 μM 2 min
Procedure: In order to evaluate the effect of prodrug oxidation on the rate of enzymatic hydrolysis, the initial hydrolysis rate of NSAIDs from the oxidized and non-oxidized nanoprodrugs was determined. The nanoprodrugs prepared from ALA-TEG-Ibu, ALA-TEG-Npx and ALA-TEG-Ind (250 μM in PBS, pH 7.4) were incubated in the absence and presence of HOCl (500 μM) for 2 min. Esterase (2 U/ml) was added and mixed by pipetting up and down. The reaction mixture was centrifuged immediately after addition of esterase and the supernatant was quickly transferred into a new tube and incubated further to complete hydrolysis. The hydrolyzed NSAIDs in the supernatant were quantified using RP-HPLC as described above. Error bar represents±S.D. calculated from triplicate determinations.
To evaluate the sequence of hydrolysis after oxidation, the nanoprodrugs were incubated in presence of HOCl (500 μM) for 2 min and esterase (2 U/ml) was added. The reaction mixture was mixed by pipetting up and down and immediately centrifuged for 10 min at 20,000×g. The supernatant was analyzed using RP-HPLC as described above.

[6] = tested on: human glioma cells (U87-MG); experiment: WST-1 cell viability assay, glioma cells; type: cell-based; settings: free ibuprofen up to 600 μM, 72 h
Procedure: Growth inhibition was evaluated by the WST-1 (water-soluble tetrazolium salt) colorimetric assay (Boehringer Mannheim) according to the manufacturer's instructions. […] Cells were incubated at 37° C. for 1-4 h, and the absorbance was read by an ELISA plate reader at 450 nm. The cell viability was calculated as follows: Cell viability (%)=(Abss/Absc)×100, where Abss is the absorbance of cells treated with drugs and Absc is the absorbance of control cells incubated with cell culture medium only (See FIG. 9.).

[7] = tested on: human glioma cells (U87-MG); experiment: Cell death by propidium iodide uptake; type: cell-based; settings: 200 μM of ibuprofen in DMSO, 72 h
Procedure: The human glioma cells (U87-MG) were seeded at 1×10^5 cells per well in 6-well plates, and allowed to grow for 24 h. The medium was changed and the cells were treated with 50 or 100 μM of nanoprodrug of Ibu2TEG or 200 μM of ibuprofen dissolved in DMSO for 72 h. Control cultures were treated with DMSO or cell culture medium only. After the end of treatment, glioma cells were incubated with 5 μM of propidium iodide (Sigma) for 1 h. Propidium iodide fluorescence was excited at 515-560 nm using an inverted microscope fitted with a standard rhodamine filter.

[8] = hydrodynamic size of additional nanospheres, Table 2B
[9] = polydispersity index of additional nanospheres, Table 2B
[10] = nanoprodrugs of the derivative, Table 2A, n = 3, ±S.D., DLS 25° C.
[11] = polydispersity index of nanoprodrugs, Table 2A, n = 3, ±S.D.
[12] = another NSAID nanosphere, Table 2C

Size (nm) [1, 10]: 253 ± 25 nm | P.I. [1, 11]: 0.09 ± 0.05 | Induction phase of oxidative destabilization [3]: longest induction phase
SMILES: COc1ccc2c(c1)c(CC(=O)OCCOCCOCCOCCOC(=O)CCCCC1CCSS1)c(C)n2C(=O)c1ccc(Cl)cc1 (stereo not drawn) [ALA-TEG-Ind]

P.I. [1, 12]: 0.11 | Size (nm) [1, 12]: 118 ± 32 nm
SMILES: O=C(OCCOCCOCCOCCOC(=O)c1ccccc1Nc1cccc(C(F)(F)F)c1)c1ccccc1Nc1cccc(C(F)(F)F)c1 [(FA)2TEG, Tetraethylene glycol(flufenamic acid)2]

Size (nm) [1, 10]: 251 ± 13 nm | P.I. [1, 11]: 0.10 ± 0.03 | Parent drugs hydrolyzed / released from the nanoprodrugs after 1 h incubation (Esterase (porcine liver)): approximately 90% | Concentration of the released drugs (Esterase (porcine liver)): 417 µM | Drug release (Esterase (porcine liver)): 83% | Released parent drugs from the oxidized nanoprodrugs in comparison with non-oxidized controls (esterase [4]): 80% | Increase of the amount of hydrolyzed drugs from oxidized vs non-oxidized nanoprodrugs (esterase [5]): approximately two
SMILES: CC(C)Cc1ccc(C(C)C(=O)OCCOCCOCCOCCOC(=O)CCCCC2CCSS2)cc1 (stereo not drawn) [ALA-TEG-Ibu]

Size (nm) [1, 8]: 210 ± 53 nm | P.I. [1, 9]: 0.09
SMILES: CC(C)Cc1ccc(C(C)C(=O)OCCOCCOC(=O)CCCCC2CCSS2)cc1 (stereo not drawn) [ALA-DEG-Ibu, (α-Lipoic acid)-diethylene glycol(ibuprofen)]

Size (nm) [1, 8]: 274 ± 56 nm | P.I. [1, 9]: 0.05
SMILES: COc1ccc2cc([C@H](C)C(=O)OCCOCCOC(=O)CCCCC3CCSS3)ccc2c1 (stereo partly drawn) [ALA-DEG-Npx, (α-Lipoic acid)-diethylene glycol(naproxen)]

Size (nm) [1, 10]: 159 ± 10 nm | P.I. [1, 11]: 0.06 ± 0.03
SMILES: COc1ccc2c(c1)c(CC(=O)OCCOCCOCCOCCOC(=O)Cc1c(C)n(C(=O)c3ccc(Cl)cc3)c3ccc(OC)cc13)c(C)n2C(=O)c1ccc(Cl)cc1 [Ind2TEG]

More lines, now with the values behind:

SMILES: O=C(CCCCC1CCSS1)OCCOCCOCCOCCOC(=O)c1ccccc1Nc1cccc(C(F)(F)F)c1 (stereo not drawn) [ALA-TEG-FA, (α-Lipoic acid)-tetraethylene glycol(flufenamic acid)]
Size (nm) [1, 8]: 149 ± 36 nm | P.I. [1, 9]: 0.08

SMILES: COc1ccc2cc(C(C)C(=O)OCCOCCOCCOCCOC(=O)C(C)c3ccc4cc(OC)ccc4c3)ccc2c1 (stereo not drawn) [Npx2TEG]
Size (nm) [1, 10]: 259 ± 9 nm | P.I. [1, 11]: 0.06 ± 0.02 | Concentrations of the released drugs after 12 h incubation (Esterase (porcine liver)): comparable

SMILES: COc1ccc2c(c1)c(CC(=O)OCCOCCOC(=O)CCCCC1CCSS1)c(C)n2C(=O)c1ccc(Cl)cc1 (stereo not drawn) [ALA-DEG-IND, (α-Lipoic acid)-diethylene glycol(indomethacin)]
Size (nm) [1, 8]: 187 ± 54 nm | P.I. [1, 9]: 0.13

SMILES: CC(C)Cc1ccc(C(C)C(=O)OCCOCCOCCOCCOC(=O)C(C)c2ccc(CC(C)C)cc2)cc1 (stereo not drawn) [Ibu2TEG, Tetraethylene glycol(ibuprofen)2]
Size (nm) [1, 10]: 186 ± 11 nm | P.I. [1, 11]: 0.13 ± 0.02 | Concentrations of the released drugs after 12 h incubation (Esterase (porcine liver)): comparable | Cell number compared to the control culture [2]: significant decrease in cell number

SMILES: COc1ccc2cc([C@H](C)C(=O)OCCOCCOCCOCCOC(=O)CCCCC3CCSS3)ccc2c1 (stereo partly drawn) [ALA-TEG-Npx]
Size (nm) [1, 10]: 298 ± 6 nm | P.I. [1, 11]: 0.05 ± 0.01 | Induction phase of oxidative destabilization [3]: less apparent | Parent drugs hydrolyzed / released from the nanoprodrugs after 1 h incubation (Esterase (porcine liver)): approximately 90% | Concentration of the released drugs (Esterase (porcine liver)): 454 µM | Drug release (Esterase (porcine liver)): 91% | Released parent drugs from the oxidized nanoprodrugs in comparison with non-oxidized controls (esterase [4]): 87% | Increase of the amount of hydrolyzed drugs from oxidized vs non-oxidized nanoprodrugs (esterase [5]): three

SMILES: CC(C)Cc1ccc(C(C)C(=O)O)cc1 (stereo not drawn) [ibuprofen]
Effect on cell viability [6]: did not show any significant effect | Propidium iodide incorporation (cell death) [7]: no significant propidium iodide incorporation

— patent publication US8603531B2, “Nanometer-sized prodrugs of NSAIDs” (Cedars-Sinai Medical Center, priority 2008, dated 2013)
